Data: ChEMBL document CHEMBL1148226, “Evidences for the formation of bisbenzamidine-heme complexes in cell-free systems” (Bioorg Med Chem Lett, 2004)

Experiments:
Plasmodium falciparum [1] = assay: In vitro inhibitory concentration against chloroquine-resistant Plasmodium falciparum; Not active; assay type: functional, organism-based
Plasmodium falciparum [2] = assay: In vitro inhibitory concentration against chloroquine-sensitive Plasmodium falciparum; Not active; assay type: functional, organism-based

In the case of CN1CCN(C)C1c1ccc(N2CCN(c3ccc(C4N(C)CCN4C)cc3)CC2)cc1, the IC50 (Plasmodium falciparum [1]) is reported as “Not Active” and the IC50 (Plasmodium falciparum [2]) is reported as “Not Active”.

For COc1ccc(N)cc1, the IC50 (Plasmodium falciparum [1]) was “Not Active” and the IC50 (Plasmodium falciparum [2]) was “Not Active”.

CCOC(=O)c1ccc(N2CCN(c3ccc(C(=O)OCC)cc3)CC2)cc1 was tested, and the IC50 (Plasmodium falciparum [1]) was “Not Active” and the IC50 (Plasmodium falciparum [2]) was “Not Active”.

Cl.N=C(N)c1ccc(N)cc1 was tested, and the IC50 (Plasmodium falciparum [1]) was “Not Active” and the IC50 (Plasmodium falciparum [2]) was “Not Active”.

In the case of Nc1ccccc1 [ANILINE], the IC50 (Plasmodium falciparum [1]) is reported as “Not Active” and the IC50 (Plasmodium falciparum [2]) is reported as “Not Active”.

With CN [METHYLAMINE] the IC50 (Plasmodium falciparum [1]) was “Not Active” and the IC50 (Plasmodium falciparum [2]) was “Not Active”.
